Test results as given in ChEMBL document CHEMBL1127134, “Synthesis and antibacterial activity of (1R,5R,6R)-2-tert-butyl-6-(1-hydroxyethyl)oxapenem-3-carboxylic acid” (1993).

Key:
Type in all cases: functional
Providencia rettgeri = test: Minimum inhibitory concentration required for the antibacterial activity against Proteus rettgeri 1007
Proteus vulgaris [1] = test: Minimum inhibitory concentration required for the antibacterial activity against Proteus vulgaris 9023
Staphylococcus aureus [2] = test: Minimum inhibitory concentration required for the antibacterial activity against Staphylococcus aureus 21b Belgium
Staphylococcus aureus [3] = test: Minimum inhibitory concentration required for the antibacterial activity against Staphylococcus aureus 25463
Bacteroides fragilis [4] = test: Minimum inhibitory concentration required for the antibacterial activity against Bacillus fragilis 4661 Kr
Pseudomonas aeruginosa [5] = test: Minimum inhibitory concentration required for the antibacterial activity against Pseudomonas aeruginosa Walter
Staphylococcus aureus [6] = test: Minimum inhibitory concentration required for the antibacterial activity against Staphylococcus aureus 25455
Staphylococcus aureus [7] = test: Minimum inhibitory concentration required for the antibacterial activity against Staphylococcus aureus 25470
Bacteroides fragilis [8] = test: Minimum inhibitory concentration required for the antibacterial activity against Bacillus fragilis L 1168 Italien
Staphylococcus aureus [9] = test: Minimum inhibitory concentration required for the antibacterial activity against Staphylococcus aureus 17N Munchen
Klebsiella [10] = test: Minimum inhibitory concentration required for the antibacterial activity against Klebsiella 63
Enterococcus [11] = test: Minimum inhibitory concentration required for the antibacterial activity against Enterococcus 27158
Staphylococcus aureus [12] = test: Minimum inhibitory concentration required for the antibacterial activity against Staphylococcus aureus 90 Innsbruck
[13] = test system: Peptostreptococcus anaerobius; test: Minimum inhibitory concentration required for the antibacterial activity against Peptostrept. anaer. 222 I/82
Micrococcus luteus = test: Minimum inhibitory concentration required for the antibacterial activity against Micrococcus luteus
Staphylococcus aureus [14] = test: Minimum inhibitory concentration required for the antibacterial activity against Staphylococcus aureus 133
Escherichia coli [15] = test: Minimum inhibitory concentration required for the antibacterial activity against Escherichia coli 183/58
Enterococcus faecalis [16] = test: Minimum inhibitory concentration required for the antibacterial activity against Streptococcus faecalis 27101
Pseudomonas aeruginosa [17] = test: Minimum inhibitory concentration required for the antibacterial activity against Pseudomonas aeruginosa 7053
Fusobacterium nucleatum = test: Minimum inhibitory concentration required for the antibacterial activity against Fusobacterium nucleatum DSM 20482
Staphylococcus = test: Minimum inhibitory concentration required for the antibacterial activity against Staphylococcus E 25485
Providencia sp. = test: Minimum inhibitory concentration required for the antibacterial activity against Providencia 12012
[18] = test system: Peptostreptococcus anaerobius; test: Minimum inhibitory concentration required for the antibacterial activity against Peptostrept. anaer. Kr I
Staphylococcus aureus [19] = test: Minimum inhibitory concentration required for the antibacterial activity against Staphylococcus aureus 25085
Enterobacter cloacae [20] = test: Minimum inhibitory concentration required for the antibacterial activity against Enterobacter cloacae 56 US
Bacteroides fragilis [21] = test: Minimum inhibitory concentration required for the antibacterial activity against Bacillus fragilis 010848
Escherichia coli [22] = test: Minimum inhibitory concentration required for the antibacterial activity against Escherichia coli 4322
Bacteroides ovatus = test: Minimum inhibitory concentration required for the antibacterial activity against Bacillus ovatus Heidelberg 32
Escherichia coli [23] = test: Minimum inhibitory concentration required for the antibacterial activity against Escherichia coli T A261
Serratia [24] = test: Minimum inhibitory concentration required for the antibacterial activity against Serratia 16002
Morganella morganii = test: Minimum inhibitory concentration required for the antibacterial activity against Proteus Morganii 932
[25] = test system: Prevotella melaninogenica; test: Minimum inhibitory concentration required for the antibacterial activity against Bacillus melaninogenicus Kr
[26] = test system: Prevotella melaninogenica; test: Minimum inhibitory concentration required for the antibacterial activity against Bacillus melaninogenicus Heidelberg
Staphylococcus aureus [27] = test: Minimum inhibitory concentration required for the antibacterial activity against Staphylococcus aureus 41h Belgium
[28] = test system: Bacteroides thetaiotaomicron; test: Minimum inhibitory concentration required for the antibacterial activity against Bacillus thetaiotaomicron 235 Munchen
[29] = test system: Peptostreptococcus anaerobius; test: Minimum inhibitory concentration required for the antibacterial activity against Peptostrept. anaer. Kr II
Enterococcus [30] = test: Minimum inhibitory concentration required for the antibacterial activity against Enterococcus 9790
Serratia [31] = test: Minimum inhibitory concentration required for the antibacterial activity against Serratia 16001
Staphylococcus aureus [32] = test: Minimum inhibitory concentration required for the antibacterial activity against Staphylococcus aureus 25768
Enterococcus faecalis [33] = test: Minimum inhibitory concentration required for the antibacterial activity against Streptococcus faecalis 113
Escherichia coli [34] = test: Minimum inhibitory concentration required for the antibacterial activity against Escherichia coli T7
Clostridium perfringens [35] = test: Minimum inhibitory concentration required for the antibacterial activity against Clostridium perfringens 24072
[36] = test system: Fusobacterium necrophorum; test: Minimum inhibitory concentration required for the antibacterial activity against Sphaerophorus necrophorus Kr
Proteus vulgaris [37] = test: Minimum inhibitory concentration required for the antibacterial activity against Proteus vulgaris 1017
Bacteroides fragilis [38] = test: Minimum inhibitory concentration required for the antibacterial activity against Bacillus fragilis 2034/35 Kr 43
Clostridium butyricum = test: Minimum inhibitory concentration required for the antibacterial activity against Clostridium butyricum
Staphylococcus aureus [39] = test: Minimum inhibitory concentration required for the antibacterial activity against Staphylococcus aureus 86 Innsbruck
Proteus vulgaris [40] = test: Minimum inhibitory concentration required for the antibacterial activity against Proteus vulgaris N6
[41] = test system: Peptostreptococcus anaerobius; test: Minimum inhibitory concentration required for the antibacterial activity against Peptostrept. anaer. DSM 20357
Thomasclavelia ramosa = test: Minimum inhibitory concentration required for the antibacterial activity against Clostridium ramosum DSM 1402
Pseudomonas aeruginosa [42] = test: Minimum inhibitory concentration required for the antibacterial activity against Pseudomonas aeruginosa 7451
Bacteroides fragilis [43] = test: Minimum inhibitory concentration required for the antibacterial activity against Bacillus fragilis ES 25
Bacteroides fragilis [44] = test: Minimum inhibitory concentration required for the antibacterial activity against Bacillus fragilis Kr 1 TV
Klebsiella [45] = test: Minimum inhibitory concentration required for the antibacterial activity against Klebsiella 57USA
Clostridium perfringens [46] = test: Minimum inhibitory concentration required for the antibacterial activity against Clostridium perfringens 24071
Pseudomonas aeruginosa [47] = test: Minimum inhibitory concentration required for the antibacterial activity against Pseudomonas aeruginosa F41
Enterobacter cloacae [48] = test: Minimum inhibitory concentration required for the antibacterial activity against Enterobacter cloacae 5744
Staphylococcus aureus [49] = test: Minimum inhibitory concentration required for the antibacterial activity against Staphylococcus aureus 25464
Clostridium perfringens [50] = test: Minimum inhibitory concentration required for the antibacterial activity against Clostridium perfringens DSM 756
Klebsiella [51] = test: Minimum inhibitory concentration required for the antibacterial activity against Klebsiella 1852
Staphylococcus aureus [52] = test: Minimum inhibitory concentration required for the antibacterial activity against Staphylococcus aureus 79B Innsbruck
Bacteroides fragilis [53] = test: Minimum inhibitory concentration required for the antibacterial activity against Bacillus fragilis 1560 I/82
Bacteroides fragilis [54] = test: Minimum inhibitory concentration required for the antibacterial activity against Bacillus fragilis 4891/91 Kr
Clostridium sporogenes = test: Minimum inhibitory concentration required for the antibacterial activity against Clostridium sporogenes
Staphylococcus aureus [55] = test: Minimum inhibitory concentration required for the antibacterial activity against Staphylococcus aureus 77 Innsbruck
Bacteroides fragilis [56] = test: Minimum inhibitory concentration required for the antibacterial activity against Bacillus fragilis 06688

Molecule C[C@@H](O)[C@H]1C(=O)N2C(C(=O)[O-])=C(C(C)(C)C)O[C@H]12.[K+] has an MIC (Providencia rettgeri) of 2 µg/mL, an MIC (Proteus vulgaris [1]) of 1 µg/mL and an MIC (Staphylococcus aureus [2]) of 12.5 µg/mL. The MIC (Staphylococcus aureus [3]) was 1.56 µg/mL, the MIC (Bacteroides fragilis [4]) was 2 µg/mL and the MIC (Pseudomonas aeruginosa [5]) was > 128 µg/mL. For the same molecule, the MIC (Staphylococcus aureus [6]) was 0.12 µg/mL, the MIC (Staphylococcus aureus [7]) was 50 µg/mL and the MIC (Bacteroides fragilis [8]) was 2 µg/mL. For the same molecule, the MIC (Staphylococcus aureus [9]) was 1.56 µg/mL, the MIC (Klebsiella [10]) was 4 µg/mL and the MIC (Enterococcus [11]) was 16 µg/mL. For the same molecule, the MIC (Staphylococcus aureus [12]) was ≤ 0.78 µg/mL, the MIC [13] was 2 µg/mL and the MIC (Micrococcus luteus) was ≤ 0.06 µg/mL. For the same molecule, the MIC (Staphylococcus aureus [14]) was 0.12 µg/mL, the MIC (Escherichia coli [15]) was 1 µg/mL and the MIC (Enterococcus faecalis [16]) was 2 µg/mL. The MIC (Pseudomonas aeruginosa [17]) was > 128 µg/mL, the MIC (Fusobacterium nucleatum) was 0.5 µg/mL and the MIC (Staphylococcus) was ≤ 0.06 µg/mL. It also gave an MIC (Providencia sp.) of 4 µg/mL, an MIC [18] of 2 µg/mL and an MIC (Staphylococcus aureus [19]) of 1.56 µg/mL. The MIC (Enterobacter cloacae [20]) was 16 µg/mL, the MIC (Bacteroides fragilis [21]) was 2 µg/mL and the MIC (Escherichia coli [22]) was 2 µg/mL. It also gave an MIC (Bacteroides ovatus) of 2 µg/mL, an MIC (Escherichia coli [23]) of 2 µg/mL and an MIC (Serratia [24]) of 64 µg/mL. For the same molecule, the MIC (Morganella morganii) was 2 µg/mL, the MIC [25] was 0.5 µg/mL and the MIC [26] was 4 µg/mL. It also gave an MIC (Staphylococcus aureus [27]) of 12.5 µg/mL, an MIC [28] of 4 µg/mL and an MIC [29] of 0.25 µg/mL. The MIC (Enterococcus [30]) was 2 µg/mL, the MIC (Serratia [31]) was 64 µg/mL and the MIC (Staphylococcus aureus [32]) was ≤ 0.78 µg/mL. For the same molecule, the MIC (Enterococcus faecalis [33]) was 16 µg/mL, the MIC (Escherichia coli [34]) was 2 µg/mL and the MIC (Clostridium perfringens [35]) was 0.5 µg/mL. It also gave an MIC [36] of 1 µg/mL, an MIC (Proteus vulgaris [37]) of 1 µg/mL and an MIC (Bacteroides fragilis [38]) of 2 µg/mL. For the same molecule, the MIC (Clostridium butyricum) was 2 µg/mL, the MIC (Staphylococcus aureus [39]) was ≤ 0.78 µg/mL and the MIC (Proteus vulgaris [40]) was 1 µg/mL. For the same molecule, the MIC [41] was 1 µg/mL, the MIC (Thomasclavelia ramosa) was 1 µg/mL and the MIC (Pseudomonas aeruginosa [42]) was > 128 µg/mL. The MIC (Bacteroides fragilis [43]) was 2 µg/mL, the MIC (Bacteroides fragilis [44]) was 2 µg/mL and the MIC (Klebsiella [45]) was 4 µg/mL. The MIC (Clostridium perfringens [46]) was 0.5 µg/mL, the MIC (Pseudomonas aeruginosa [47]) was > 128 µg/mL and the MIC (Enterobacter cloacae [48]) was 32 µg/mL. The MIC (Staphylococcus aureus [49]) was 3.12 µg/mL, the MIC (Clostridium perfringens [50]) was 1 µg/mL and the MIC (Klebsiella [51]) was 16 µg/mL. The MIC (Staphylococcus aureus [52]) was ≤ 0.78 µg/mL, the MIC (Bacteroides fragilis [53]) was 2 µg/mL and the MIC (Bacteroides fragilis [54]) was 2 µg/mL. For the same molecule, the MIC (Clostridium sporogenes) was 0.5 µg/mL, the MIC (Staphylococcus aureus [55]) was ≤ 0.78 µg/mL and the MIC (Bacteroides fragilis [56]) was 2 µg/mL.
